Molecules are shown by their SMILES.

The target of assay [1] is T1, TbrCatL (Trypanosoma brucei rhodesiense, UniProt Q95PM0).
T1 construct: Conor Caffrey (University of California San Diego)
Description: TbrCatL enzymatic inhibition assay (cleavage of fluorogenic substrate Z-FR-AMC). Format: biochemical. Particulars: for TbrCatL 0’ Inhibition / TbrCatL 10’ Inhibition: sheet "Screening results". As for the experimental part:
(§1) Allison Doak and Prof. Brian Shoichet (University of California San Francisco, San Francisco, CA, USA) and Prof. Conor Caffrey (University of California San Diego, San Diego, CA, USA) generously provided recombinant cruzain and TbrCatL, respectively. In vitro activity of proteases cruzain and TbrCatL was assayed as previously described. Briefly, enzyme activity was measured by monitoring the cleavage of the fluorogenic substrate […] (Z-FR-AMC) at 25 °C. Fluorescence was monitored at 340/440 nm (excitation/emission) over 5–7 min in a Synergy2 Biotek plate reader. […] DMSO and 1 μM E-64 were employed as negative and positive controls, respectively, in all assays. Two conditions were employed for both enzymes: 10′ pre-incubation of the enzyme in the presence of the compound (10′ inc) and no pre-incubation (0′). Reported values correspond to the mean and standard error of the mean (SEM) and all analyses were performed using GraphPad Prism 6.0.
(§2) For the initial screening, compounds were assayed at 5 μM. […] IC50 curves were obtained from a non-linear fit of at least seven distinct compound concentrations, in triplicate. Reported IC50 values are the mean and SEM of two independent measurements.

In assay [2] the target is cruzain (Trypanosoma cruzi, UniProt P25779). Put plainly: biochemical. To be noted: for Cruzain 0’ Inhibition / Cruzain 10’ Inhibition: sheet "Screening results". As for the experimental part:
as §1, §2

Setting [3] is: 0’ (no pre-incubation), sheet Screening results.
[4] abbreviates: 10’ (pre-incubation), sheet Screening results.
The mark [5] stands for this setting: 0’ (pre-incubation time), Pathogen Box screening results.
Where [6] appears, read: 10’ (pre-incubation time), Pathogen Box screening results.
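Further: at 5 µM compound concentration.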

Chain of cruzain (P25779 123-337 limits assumed): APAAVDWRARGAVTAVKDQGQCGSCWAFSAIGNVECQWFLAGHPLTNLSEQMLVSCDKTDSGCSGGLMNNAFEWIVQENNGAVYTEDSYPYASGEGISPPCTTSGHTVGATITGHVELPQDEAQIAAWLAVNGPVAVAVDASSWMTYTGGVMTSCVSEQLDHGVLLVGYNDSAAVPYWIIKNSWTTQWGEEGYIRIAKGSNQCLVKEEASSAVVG
T1 sequence (Q95PM0 entry or part of it): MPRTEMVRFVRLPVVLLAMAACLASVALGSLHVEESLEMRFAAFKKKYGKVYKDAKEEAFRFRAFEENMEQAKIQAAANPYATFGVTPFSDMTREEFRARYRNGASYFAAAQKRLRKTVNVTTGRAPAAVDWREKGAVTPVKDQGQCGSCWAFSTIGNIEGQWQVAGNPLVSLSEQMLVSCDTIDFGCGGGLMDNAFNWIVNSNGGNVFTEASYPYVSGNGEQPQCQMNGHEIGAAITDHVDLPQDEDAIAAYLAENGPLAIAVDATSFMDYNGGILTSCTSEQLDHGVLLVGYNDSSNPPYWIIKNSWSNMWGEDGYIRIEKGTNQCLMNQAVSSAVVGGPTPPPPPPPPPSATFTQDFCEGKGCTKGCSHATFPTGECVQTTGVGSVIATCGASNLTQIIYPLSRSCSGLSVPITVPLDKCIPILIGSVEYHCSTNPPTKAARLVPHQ

For `C[C@H](C(N)=O)N1CCCC[C@H]1c1ccc(OCc2cccc(F)c2)cc1` [MMV676269], the “TbrCatL 0’ Inhibition” value in assay [1] (0’ (pre-incubation time)) is -3%. The “TbrCatL 10’ Inhibition” value in assay [1] (10’ (pre-incubation time)) is reported as -4.7%. For the same molecule, the “Cruzain 0’ Inhibition” value in assay [2] (0’ (pre-incubation time)) is recorded as 0.4%. The “Cruzain 10’ Inhibition” value in assay [2] (10’ (pre-incubation time)) came to 2%.
The matching figures for `CC(C)C(Oc1cccc2ccccc12)C(=O)O` (stereo not shown) [MMV676191]: -3%, 2%, 2.8% and 1.5%.
The matching figures for `CCc1ccc(S(=O)(=O)Nc2cc(CN3CCN(CCC(C)C)CC3)ccc2C)cc1` [MMV688124]: -3.3%, 1%, -1.8% and 3%.
As to `Brc1c(-c2ccc3c(c2)OCO3)nc2ncccn12` [MMV676377], in assay [1] (setting [3]), the “TbrCatL Inhibition 0’” value is on record as 5%. In addition, the “TbrCatL Inhibition 10’” value in assay [1] (setting [4]) was -1.8%. Besides, the “Cruzain Inhibition 0’” value in assay [2] (setting [3]) was found to be 1.2%. Moreover, the “Cruzain Inhibition 10’” value in assay [2] (setting [4]) is -0.9%.
As to `Cc1cc(C)cc(COc2ccc3c(C)c(CCC(=O)O)c(=O)oc3c2C)c1` [MMV676476], the “TbrCatL Inhibition 0’” value in assay [1] (setting [3]) was -17%. In addition, the “TbrCatL Inhibition 10’” value in assay [1] (setting [4]) is listed as -2.6%. Also, the “Cruzain Inhibition 0’” value in assay [2] (setting [3]) was found to be 1.9%. Moreover, the “Cruzain Inhibition 10’” value in assay [2] (setting [4]) is on record as -3.3%.
As to `C[C@@H]1[C@H](O)[C@@H](C)/C=C/C=C/C=C/C=C/C=C/C=C/C=C/[C@H](O[C@@H]2O[C@H](C)[C@@H](O)[C@H](N)[C@@H]2O)C[C@@H]2O[C@](O)(C[C@@H](O)C[C@@H](O)[C@H](O)CC[C@@H](O)C[C@@H](O)CC(=O)O[C@H]1C)C[C@H](O)[C@H]2C(=O)O` [MMV689000], the “TbrCatL 0’ Inhibition” value in assay [1] (0’ (pre-incubation time)) was determined as 11%. For the same molecule, the “TbrCatL 10’ Inhibition” value in assay [1] (10’ (pre-incubation time)) stood at 9%. Also, the “Cruzain 0’ Inhibition” value in assay [2] (0’ (pre-incubation time)) was found to be 10%. For the same molecule, the “Cruzain 10’ Inhibition” value in assay [2] (10’ (pre-incubation time)) is given as 10%.
Regarding `c1ccc(-c2nc(NC3CCCCC3)cc(C3CC3)n2)nc1` [MMV021013], the “TbrCatL Inhibition 0’” value in assay [1] (setting [5]) was -1.4%. Moreover, the “TbrCatL Inhibition 10’” value in assay [1] (setting [6]) was determined as 19%. The “Cruzain Inhibition 0’” value in assay [2] (setting [5]) is on record as 9%. In assay [2] (setting [6]), the “Cruzain Inhibition 10’” value was found to be 16%.
On to `COc1ccc(-c2nc(-c3cccc(NC(=O)Cc4ccc(F)cc4)c3)no2)cc1OC` [MMV676571], for which the “TbrCatL Inhibition 0’” value in assay [1] (setting [3]) is on record as 8%. For the same molecule, the “TbrCatL Inhibition 10’” value in assay [1] (setting [4]) is 10%. Besides, the “Cruzain Inhibition 0’” value in assay [2] (setting [3]) amounted to 6%. Further, the “Cruzain Inhibition 10’” value in assay [2] (setting [4]) was 4%.
As for `CCCCOC(=O)Nc1cc2[nH]c(C3CCCCC3)nc2cc1N1CCCC1` [MMV687730], the “TbrCatL 0’ Inhibition” value in assay [1] (0’ (pre-incubation time)) is on record as 19%. Also, the “TbrCatL 10’ Inhibition” value in assay [1] (10’ (pre-incubation time)) is reported as 12%. In addition, the “Cruzain 0’ Inhibition” value in assay [2] (0’ (pre-incubation time)) was found to be 12%. For the same molecule, the “Cruzain 10’ Inhibition” value in assay [2] (10’ (pre-incubation time)) came out at 4.4%.
On to `Nc1ccc2ncnc(Nc3ccc(OCc4cccc(F)c4)c(Cl)c3)c2c1` [MMV688273], for which the “TbrCatL Inhibition 0’” value in assay [1] (setting [5]) stood at 0.9%. The “TbrCatL Inhibition 10’” value in assay [1] (setting [6]) is -14%. Also, in assay [2] (setting [5]), the “Cruzain Inhibition 0’” value is given as -11%. Moreover, the “Cruzain Inhibition 10’” value in assay [2] (setting [6]) is reported as -18%.
With `CS(=O)(=O)N1CCC(CCn2nc(Cc3cccc4ccccc34)c3c(N)ncnc32)CC1` [MMV688470], the “TbrCatL Inhibition 0’” value in assay [1] (setting [3]) stood at 14%. The “TbrCatL Inhibition 10’” value in assay [1] (setting [4]) was 9%. Besides, in assay [2] (setting [3]), the “Cruzain Inhibition 0’” value is on record as 10%. The “Cruzain Inhibition 10’” value in assay [2] (setting [4]) is reported as 11%.
For `CCOc1ccccc1C(=O)Nc1cccc(-c2nc3ncccn3c2C)c1` [MMV019790], the “TbrCatL 0’ Inhibition” value in assay [1] (0’ (pre-incubation time)) turned out to be 8%. Further, the “TbrCatL 10’ Inhibition” value in assay [1] (10’ (pre-incubation time)) is on record as -0.3%. Besides, the “Cruzain 0’ Inhibition” value in assay [2] (0’ (pre-incubation time)) was 3.2%. In addition, the “Cruzain 10’ Inhibition” value in assay [2] (10’ (pre-incubation time)) stood at 4%.
The corresponding values for `Cc1nc(-c2ccccn2)nc(N2CCC(Cc3ccccc3)C2)c1Cl` (stereo not shown) [MMV659004] are -4.5%, -2.3%, -2% and 12%.
Consider `CNC(=O)C1Cc2c([nH]c3cc(Cl)ccc23)C2(CCN(CCc3ccccc3)CC2)N1` (stereo not shown) [MMV031011], for which the “TbrCatL 0’ Inhibition” value in assay [1] (0’ (pre-incubation time)) is on record as -11%. In addition, in assay [1] (10’ (pre-incubation time)), the “TbrCatL 10’ Inhibition” value is -8%. The “Cruzain 0’ Inhibition” value in assay [2] (0’ (pre-incubation time)) was -7.5%. In addition, in assay [2] (10’ (pre-incubation time)), the “Cruzain 10’ Inhibition” value is -0.7%.
On to `CO/C=C(\C(=O)OC)c1ccccc1Oc1cc(Oc2ccccc2C#N)ncn1` [MMV021057], for which, in assay [1] (setting [3]), the “TbrCatL Inhibition 0’” value is recorded as 1.9%. The “TbrCatL Inhibition 10’” value in assay [1] (setting [4]) worked out at 9%. Also, in assay [2] (setting [3]), the “Cruzain Inhibition 0’” value was 1.6%. Besides, the “Cruzain Inhibition 10’” value in assay [2] (setting [4]) came out at 6.5%.
With `O=C(Nc1ccc(N2CCNCC2)nc1)c1oc(-c2ccccc2)nc1C(F)(F)F` [MMV024937], the “TbrCatL 0’ Inhibition” value in assay [1] (0’ (pre-incubation time)) was 20%. For the same molecule, in assay [1] (10’ (pre-incubation time)), the “TbrCatL 10’ Inhibition” value is reported as 23%. The “Cruzain 0’ Inhibition” value in assay [2] (0’ (pre-incubation time)) stood at 5.6%. The “Cruzain 10’ Inhibition” value in assay [2] (10’ (pre-incubation time)) is 14%.
The matching figures for `COc1cccc(OC)c1C(=O)Nc1ccc(Cl)c(-c2nc3ccccc3s2)c1` [MMV676472]: 4%, -2%, 8% and 14%.
With `CC(Oc1ccccc1)C(=O)Nc1nc(-c2ccccn2)cs1` (stereo not shown) [MMV676411], in assay [1] (0’ (pre-incubation time)), the “TbrCatL 0’ Inhibition” value is -14%. For the same molecule, the “TbrCatL 10’ Inhibition” value in assay [1] (10’ (pre-incubation time)) is recorded as -0.8%. In addition, the “Cruzain 0’ Inhibition” value in assay [2] (0’ (pre-incubation time)) was -2.3%. Moreover, in assay [2] (10’ (pre-incubation time)), the “Cruzain 10’ Inhibition” value is recorded as 0.8%.
As to `CS(=O)(=O)c1ccc(C(=O)N(CC2CCCO2)c2nc3ccccc3s2)cc1[N+](=O)[O-]` (stereo not shown) [MMV688761], in assay [1] (setting [3]), the “TbrCatL Inhibition 0’” value is -0.9%. In addition, in assay [1] (setting [4]), the “TbrCatL Inhibition 10’” value is on record as 1.2%. Moreover, the “Cruzain Inhibition 0’” value in assay [2] (setting [3]) is on record as -0.3%. In addition, the “Cruzain Inhibition 10’” value in assay [2] (setting [4]) is 5.7%.
As for `CCN(CC)CCCN1CCN(C(=O)c2cccc(-c3noc(C(F)(F)F)n3)c2)CC1` [MMV022236], in assay [1] (0’ (pre-incubation time)), the “TbrCatL 0’ Inhibition” value is reported as 7.4%. In addition, the “TbrCatL 10’ Inhibition” value in assay [1] (10’ (pre-incubation time)) is on record as 16%. The “Cruzain 0’ Inhibition” value in assay [2] (0’ (pre-incubation time)) was 7%. In assay [2] (10’ (pre-incubation time)), the “Cruzain 10’ Inhibition” value is 16%.
On to `CCc1nn(C)c(C(=O)NCc2ccc(Oc3ccc(C)cc3)cc2)c1Cl` [MMV688934], for which the “TbrCatL Inhibition 0’” value in assay [1] (setting [3]) came to 18%. In addition, the “TbrCatL Inhibition 10’” value in assay [1] (setting [4]) is given as 14%. Also, the “Cruzain Inhibition 0’” value in assay [2] (setting [3]) was 15%. In addition, the “Cruzain Inhibition 10’” value in assay [2] (setting [4]) was found to be 7.4%.
In the case of `FC(F)(F)c1cc(NCCc2ccccc2)nc(-c2ccccn2)n1` [MMV659010], the “TbrCatL 0’ Inhibition” value in assay [1] (0’ (pre-incubation time)) is on record as 8%. Also, the “TbrCatL 10’ Inhibition” value in assay [1] (10’ (pre-incubation time)) is 9%. The “Cruzain 0’ Inhibition” value in assay [2] (0’ (pre-incubation time)) is given as -2.5%. Moreover, the “Cruzain 10’ Inhibition” value in assay [2] (10’ (pre-incubation time)) amounted to 6%.
The matching figures for `Nc1nc(N)c2c3c(sc2n1)CN(Cc1ccccc1)CC3` [MMV688345]: -1%, 23%, 3.6% and 16%.
Take `CC(=O)NC[C@@H]1CN(c2ccc(N3CCOCC3)c(F)c2)C(=O)O1` [MMV687803]: the “TbrCatL Inhibition 0’” value in assay [1] (setting [3]) amounted to 3.8%. Moreover, the “TbrCatL Inhibition 10’” value in assay [1] (setting [4]) is -0.1%. Further, in assay [2] (setting [3]), the “Cruzain Inhibition 0’” value is given as -8%. Besides, in assay [2] (setting [4]), the “Cruzain Inhibition 10’” value was -4%.
With `Cc1ncc(-c2ccnc(Nc3ccc(S(C)(=O)=O)cc3)n2)n1C(C)C` [MMV676604], the “TbrCatL Inhibition 0’” value in assay [1] (setting [3]) stood at 3%. In addition, in assay [1] (setting [4]), the “TbrCatL Inhibition 10’” value was -26%. For the same molecule, the “Cruzain Inhibition 0’” value in assay [2] (setting [3]) stood at 22%. Moreover, the “Cruzain Inhibition 10’” value in assay [2] (setting [4]) is reported as 3.2%.

The values above are taken from publication PMC9967275, “Screening the Pathogen Box to Discover and Characterize New Cruzain and TbrCatL Inhibitors” (Pathogens, 2023).
